Assays:
Cbl-b [1] = biological target: T1, Cbl-b (Homo sapiens (Human), UniProt Q13191); assay: Cbl-b displacement assay (Cbl-b inhibition assay), Biological Example 1; format: binding
Method: (§1) The ability of candidate compounds to displace a known inhibitor and thereby inhibit Cbl-b activity was measured by monitoring the interaction of Cbl-b with a fluorophore-labeled probe in the presence of the candidate compound.
Following the one hour incubation, the plates were read for TR-FRET signal at 520/620 nm using an Envision plate reader (Perkin Elmer).

[2] = system: primary human total T-cells; assay: Primary human total T-cell activation (IL-2 secretion, CD25 surface staining), Biological Example 9; conditions: fold change over baseline, Table 9-1; for IL-2 secretion CD3/CD28 0.3 μM: 0.3 μM inhibitor; for IL-2 secretion CD3/CD28 0.3 μM / IL-2 secretion CD3/CD28 1 μM: anti-CD3 and anti-CD28 co-stimulation; for IL-2 secretion CD3/CD28 1 μM / IL-2 secretion CD3 1 μM: 1 μM inhibitor
Method: Peripheral blood mononuclear cells (PBMC) were obtained either: 1) by using Ficoll-Paque™ (GE Healthcare) for separation of peripheral blood hematopoietic cells from buffy coats of healthy human donors; or 2) directly from LeukoPak donations. […] The cells were rested overnight at 37° C. 5% CO2. The Cbl-inhibitor was added to 1×10^5 cells per well and the plate was incubated for one hour at 37° C. in 5% CO2 at the concentrations indicated (Table 9-1) with a final DMSO concentration of <0.1%. For samples stimulated with anti-CD3 antibody and anti-CD28 antibody (anti-CD3/anti-CD28), the Cbl-b inhibitor concentrations tested were 1 μM, and 0.3 μM. For samples stimulated with anti-CD3 antibody alone (anti-CD3), the Cbl-b inhibitor concentrations tested were 3 μM, and 1 μM. […] To prepare plates with plate bound anti-CD3 antibody (OKT3), 96-well round bottom tissue culture plates were coated with 100 μL of anti-CD3 antibody (OKT3) at 10 μg/mL for 4 hours at 37° C. 5% CO2 in phosphate buffered saline (PBS). […] Cells were stimulated for 48 hours prior to harvesting the cell free supernatant and staining the cell population for surface marker assessment by flow cytometry. Supernatants were analyzed for cytokine secretion, including IL-2 by ELISA (R&D Systems, Peprotech or Life Technologies) or Luminex multiplex kits (Procarta Life Technologies) following the manufacturer's protocol. Cells were stained with anti-CD25 antibody (BD Biosciences) to assess levels of surface marker of activation.
Readouts were reported as fold change over baseline. Baseline for this study was the measurement obtained from total human T-cells stimulated with anti-CD3 antibody and with soluble anti-CD28 antibody, wherein the cells were not incubated with a Cbl-b inhibitor (Table 9-1). […] For T-cells stimulated with anti-CD3 alone, changes greater than 0.1-fold over baseline for IL-2 secretion and greater than 0.6-fold over baseline for CD25 surface staining were considered significant and a positive response.

Cbl-b [3] = biological target: T1, Cbl-b; assay: Cbl-b displacement assay (Cbl-b inhibition assay), Biological Example 11; format: binding; conditions: 0.125 nM Cbl-b final concentration (Low); Table 11-1
Method: (§2) Candidate compounds were evaluated for their ability to bind and inhibit Cbl-b, an E3 ubiquitin-protein ligase, as evidenced by their ability to displace a fluorophore-labeled probe bound to Cbl-b.
as §1
(§3) Fluorescently-labeled inhibitor probe was synthesized and tagged with BODIPY FL. […] Following the one hour incubation, the plates were read for TR-FRET signal at 520/620 nm using an Envision plate reader (Perkin Elmer).
(§4) The resulting data for the Cbl-b activity assays were analyzed using standard methods to determine the IC50 values for the tested compounds.

[4] = system: primary human total T-cells; assay: Primary human total T-cell activation (IL-2 secretion, CD25 surface staining), Biological Example 2; conditions: fold change over baseline; for IL-2 secretion CD3/CD28 0.3 μM / CD25 staining CD3/CD28 0.3 μM: 0.3 μM inhibitor; for IL-2 secretion CD3/CD28 0.3 μM / IL-2 secretion CD3/CD28 1 μM / CD25 staining CD3/CD28 0.3 μM / CD25 staining CD3/CD28 1 μM: anti-CD3 and anti-CD28 co-stimulation; for IL-2 secretion CD3/CD28 1 μM / CD25 staining CD3 1 μM / IL-2 secretion CD3 1 μM / CD25 staining CD3/CD28 1 μM: 1 μM inhibitor; for CD25 staining CD3 1 μM / IL-2 secretion CD3 1 μM / CD25 staining CD3 3 μM / IL-2 secretion CD3 3 μM: anti-CD3 stimulation alone; for CD25 staining CD3 3 μM / IL-2 secretion CD3 3 μM: 3 μM inhibitor
Method: Peripheral blood mononuclear cells (PBMC) were obtained either: 1) by using Ficoll-Paque™ (GE Healthcare) for separation of peripheral blood hematopoietic cells from buffy coats of healthy human donors; or 2) directly from LeukoPak donations. […] The cells were rested overnight at 37° C. 5% CO2. The Cbl-inhibitor was added to 1×10^5 cells per well and the plate was incubated for one hour at 37° C. in 5% CO2 at the concentrations indicated (Table 3) with a final DMSO concentration of <0.1%. For samples stimulated with anti-CD3 antibody and anti-CD28 antibody (anti-CD3/anti-CD28), the Cbl-b inhibitor concentrations tested were 1 μM, and 0.3 μM. For samples stimulated with anti-CD3 antibody alone (anti-CD3), the Cbl-b inhibitor concentrations tested were 3 μM, and 1 μM. […] To prepare plates with plate bound anti-CD3 antibody (OKT3), 96-well round bottom tissue culture plates were coated with 100 μL of anti-CD3 antibody (OKT3) at 10 μg/mL for 4 hours at 37° C. 5% CO2 in phosphate buffered saline (PBS). […] Cells were stimulated for 48 hours prior to harvesting the cell free supernatant and staining the cell population for surface marker assessment by flow cytometry. Supernatants were analyzed for cytokine secretion, including IL-2 by ELISA (R&D Systems, Peprotech or Life Technologies) or Luminex multiplex kits (Procarta Life Technologies) following the manufacturer's protocol. Cells were stained with anti-CD25 antibody (BD Biosciences) to assess levels of surface marker of activation.
Readouts were reported as fold change over baseline. Baseline for this study was the measurement obtained from total human T-cells stimulated with anti-CD3 antibody and with soluble anti-CD28 antibody, wherein the cells were not incubated with a Cbl-b inhibitor (Table 3).

[5] = system: primary human total T-cells; assay: Primary human total T-cell activation (IL-2 secretion, CD25 surface staining), Biological Example 12; conditions: fold change over baseline, Table 12-1; for IL-2 secretion CD3/CD28 0.3 μM: 0.3 μM inhibitor; for IL-2 secretion CD3/CD28 0.3 μM / IL-2 secretion CD3/CD28 1 μM: anti-CD3 and anti-CD28 co-stimulation; for IL-2 secretion CD3/CD28 1 μM / IL-2 secretion CD3 1 μM: 1 μM inhibitor
Method: Peripheral blood mononuclear cells (PBMC) were obtained either: 1) by using Ficoll-Paque™ (GE Healthcare) for separation of peripheral blood hematopoietic cells from buffy coats of healthy human donors; or 2) directly from LeukoPak donations. […] The cells were rested overnight at 37° C. 5% CO2. The Cbl-inhibitor was added to 1×10^5 cells per well and the plate was incubated for one hour at 37° C. in 5% CO2 at the concentrations indicated (Table 12-1) with a final DMSO concentration of <0.1%. For samples stimulated with anti-CD3 antibody and anti-CD28 antibody (anti-CD3/anti-CD28), the Cbl-b inhibitor concentrations tested were 1 μM, and 0.3 μM. For samples stimulated with anti-CD3 antibody alone (anti-CD3), the Cbl-b inhibitor concentrations tested were 3 μM, and 1 μM. […] To prepare plates with plate bound anti-CD3 antibody (OKT3), 96-well round bottom tissue culture plates were coated with 100 μL of anti-CD3 antibody (OKT3) at 10 μg/mL for 4 hours at 37° C. 5% CO2 in phosphate buffered saline (PBS). […] Cells were stimulated for 48 hours prior to harvesting the cell free supernatant and staining the cell population for surface marker assessment by flow cytometry. Supernatants were analyzed for cytokine secretion, including IL-2 by ELISA (R&D Systems, Peprotech or Life Technologies) or Luminex multiplex kits (Procarta Life Technologies) following the manufacturer's protocol. Cells were stained with anti-CD25 antibody (BD Biosciences) to assess levels of surface marker of activation.
Readouts were reported as fold change over baseline. Baseline for this study was the measurement obtained from total human T-cells stimulated with anti-CD3 antibody and with soluble anti-CD28 antibody, wherein the cells were not incubated with a Cbl-b inhibitor (Table 12-1). […] For T-cells stimulated with anti-CD3 alone, changes greater than 0.1-fold over baseline for IL-2 secretion and greater than 0.6-fold over baseline for CD25 surface staining were considered significant and a positive response.

Cbl-b [6] = biological target: T1, Cbl-b; assay: Cbl-b displacement assay (Cbl-b inhibition assay), Biological Example 8; format: binding; conditions: 0.125 nM Cbl-b final concentration (Low); Table 8-1
Method: as §2, §1, §3, §4

TC-1 cells = assay: TC-1 syngeneic mouse model, vaccine combination, Biological Example 15; format: in vivo; conditions: Compound 23 orally D13 to D47 in combination with HPV16 vaccine s.c. at D13 and D20; TC-1 tumor bearing mice
Method: Mice were implanted with 50,000 TC-1 cells/mouse subcutaneously into the right flank at Day Zero (DO). Thirteen days later (D13), when tumors measured approximately 50-100 mm^3, mice from appropriate groups (15 mice per group) were injected with HPV16 vaccine (s.c., total 2 doses, at D13 and Day 20 (D20)). […] Mice were euthanized when tumor exceeded 1500-2000 mm^3, according to IACUC guidelines. Survival was compared using GraphPad Prism using log-rank (Mantel-Cox) test. **=p<0.001 of treatment vs. Vehicle+Vaccine control group at Day 61.
TC-1 cells were derived by stable transfection of mouse lung epithelial cells with human papillomavirus strain 16 (HPV16) early proteins 6 and 7 (E6 and E7) and activated h-ras oncogene. Cells were obtained from Dr. T-C Wu (Johns Hopkins University). (Lin K Y, Guarnieri F G, Staveley-O'Carroll K F, Levitsky H I, August J T, Pardoll D M, et al. Treatment of established tumors with a novel vaccine that enhances major histocompatibility class II presentation of tumor antigen. Cancer Res 1996; 56:21-6).
The HPV16 vaccine was prepared as follows: The CTL epitope from HPV16 E749-57 (9 amino acid (aa) peptide, […], 100 μg/mouse, SEQ ID NO: 2) was mixed with synthetic T helper epitope PADRE (13 aa peptide, aK-Cha-[…]a, SEQ ID NO: 3, where “a” is D-alanine and Cha is L-cyclohexylalanine, 20 μg/mouse) and with QuilA adjuvant (20 ug/mouse).

[7] = system: colon carcinoma CT26 tumor cells; conditions: 30 mg/kg PO daily D8 to D28; CT26 tumors on both flanks; compared to vehicle control
Method: Mice were implanted with 100,000 colon carcinoma CT26 tumor cells on both flanks of the mice. […] Treatments were continued daily until Day Twenty Eight (D28). […] A group of mice received an oral vehicle (0.5% Methylcellulose, 0.2% Polysorbate 80). Tumor growth inhibition (TGI) was calculated as follows: (1−(median tumor volume of drug treated group/median tumor volume of vehicle treated group))×100.

[8] = 0.125 nM Cbl-b final concentration (Low), read-out: Cbl-b activity IC50 (Low)
[9] = 3 μM inhibitor, anti-CD3 stimulation alone

T1 sequence (Q13191 36-427): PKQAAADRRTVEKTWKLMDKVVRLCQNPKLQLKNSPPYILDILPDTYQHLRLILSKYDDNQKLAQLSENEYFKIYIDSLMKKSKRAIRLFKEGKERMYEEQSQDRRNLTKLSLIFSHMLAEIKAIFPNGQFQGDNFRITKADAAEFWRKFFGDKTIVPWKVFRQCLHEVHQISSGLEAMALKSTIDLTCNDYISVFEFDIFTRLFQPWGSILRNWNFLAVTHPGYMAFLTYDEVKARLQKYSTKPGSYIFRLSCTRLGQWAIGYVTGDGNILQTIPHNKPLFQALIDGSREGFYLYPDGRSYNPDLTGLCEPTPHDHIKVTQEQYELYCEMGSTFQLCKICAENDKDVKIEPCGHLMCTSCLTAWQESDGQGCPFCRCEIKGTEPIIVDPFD

Row | IC50 (Cbl-b [1]; [8]) [nM] | IC50 (Cbl-b [3]) [nM] | IC50 (Cbl-b [6]) [nM] | Structure (SMILES) | IL-2 secretion CD3/CD28 0.3 μM [2] | IL-2 secretion CD3/CD28 1 μM [2] | IL-2 secretion CD3 1 μM ([2]; anti-CD3 stimulation alone) | IL-2 secretion CD3 3 μM [2, 9] | IL-2 secretion CD3/CD28 0.3 μM [4] | IL-2 secretion CD3/CD28 1 μM [4] | CD25 staining CD3 1 μM [4] | IL-2 secretion CD3 1 μM [4] | CD25 staining CD3 3 μM [4] | IL-2 secretion CD3 3 μM [4] | IL-2 secretion CD3/CD28 0.3 μM [5] | IL-2 secretion CD3/CD28 1 μM [5] | IL-2 secretion CD3 1 μM ([5]; anti-CD3 stimulation alone) | IL-2 secretion CD3 3 μM [5, 9] | CD25 staining CD3/CD28 0.3 μM [4] | CD25 staining CD3/CD28 1 μM [4] | also measured
1 | < 5 | 1 to 5 | 1 to 5 | C[C@H]1CCCN(Cc2cc3c(c(C(F)(F)F)c2)CN(c2cccc([C@]4(c5nncn5C)C[C@@H](C#N)C4)c2)C3=O)C1 [Compound 38, (1R,3s)-3-(4-methyl-4H-1,2,4-triazol-3-yl)-3-(3-(6-(((S)-3-methylpiperidin-1-yl)methyl)-1-oxo-4-(trifluoromethyl)isoindolin-2-yl)phenyl)cyclobutane-1-carbonitrile] | A (A indicates >15 fold) | A (A indicates >15 fold) | A (A indicates >0.66 fold) | A (A indicates >0.66 fold) | B (B indicates 20-35 fold) | B (B indicates 20-35 fold) | A (A indicates >2.5 fold) | A (A indicates >1.1 fold) | A (A indicates >2.5 fold) | B (B indicates 0.70-1.1 fold) | A (A indicates >15 fold) | A (A indicates >15 fold) | A (A indicates >0.66 fold) | A (A indicates >0.66 fold) | – | – | –
2 | < 5 | < 1 | < 1 | C[C@H]1CCCN(Cc2cc3c(c(C(F)(F)F)c2)CN(c2cccc(C4(c5nncn5C)CC5(CC5)C4)c2)C3=O)C1 [Compound 42, 6-[[(3S)-3-methyl-1-piperidyl]methyl]-2-[3-[5-(4-methyl-1,2,4-triazol-3-yl)spiro[2.3]hexan-5-yl]phenyl]-4-(trifluoromethyl)isoindolin-1-one] | A (A indicates >15 fold) | A (A indicates >15 fold) | A (A indicates >0.66 fold) | A (A indicates >0.66 fold) | B (B indicates 20-35 fold) | A (A indicates >35 fold) | A (A indicates >2.5 fold) | A (A indicates >1.1 fold) | A (A indicates >2.5 fold) | A (A indicates >1.1 fold) | A (A indicates >15 fold) | A (A indicates >15 fold) | A (A indicates >0.66 fold) | A (A indicates >0.66 fold) | B (B indicates 1.24-1.39 fold) | B (B indicates 1.24-1.39 fold) | –

Second part, the compound before the results:

Row | Structure (SMILES) | IC50 (Cbl-b [1]; [8]) [nM] | IC50 (Cbl-b [3]) [nM] | IC50 (Cbl-b [6]) [nM] | IL-2 secretion CD3/CD28 0.3 μM [2] | IL-2 secretion CD3/CD28 1 μM [2] | IL-2 secretion CD3 1 μM ([2]; anti-CD3 stimulation alone) | IL-2 secretion CD3 3 μM [2, 9] | IL-2 secretion CD3/CD28 0.3 μM [4] | IL-2 secretion CD3/CD28 1 μM [4] | CD25 staining CD3 1 μM [4] | IL-2 secretion CD3 1 μM [4] | CD25 staining CD3 3 μM [4] | IL-2 secretion CD3 3 μM [4] | IL-2 secretion CD3/CD28 0.3 μM [5] | IL-2 secretion CD3/CD28 1 μM [5] | IL-2 secretion CD3 1 μM ([5]; anti-CD3 stimulation alone) | IL-2 secretion CD3 3 μM [5, 9] | CD25 staining CD3/CD28 0.3 μM [4] | CD25 staining CD3/CD28 1 μM [4] | also measured
3 | C[C@H]1CCCN(Cc2cc3c(c(C(F)(F)F)c2)CN(c2cccc([C@H](c4nncn4C)C4CCC4)c2)C3=O)C1 [Compound 3, 2-(3-((R)-cyclobutyl(4-methyl-4H-1,2,4-triazol-3-yl)methyl)phenyl)-6-(((S)-3-methylpiperidin-1-yl)methyl)-4-(trifluoromethyl)isoindolin-1-one] | < 5 | < 1 | < 1 | A (A indicates >15 fold) | A (A indicates >15 fold) | A (A indicates >0.66 fold) | A (A indicates >0.66 fold) | A (A indicates >35 fold) | A (A indicates >35 fold) | A (A indicates >2.5 fold) | A (A indicates >1.1 fold) | A (A indicates >2.5 fold) | A (A indicates >1.1 fold) | A (A indicates >15 fold) | A (A indicates >15 fold) | A (A indicates >0.66 fold) | A (A indicates >0.66 fold) | – | – | IC50 (Cbl-b [1]; read-out: IC50 values in the Cbl-b inhibition assay of Biological Example 1): ≤ 5 nM
4 | C[C@@H]1CN(Cc2cc3c(c(C(F)(F)F)c2)CN(c2cccc([C@H](c4nncn4C)C4CCC4)c2)C3=O)CCO1 [Compound 17, 2-(3-((R)-cyclobutyl(4-methyl-4H-1,2,4-triazol-3-yl)methyl)phenyl)-6-(((R)-2-methylmorpholino)methyl)-4-(trifluoromethyl)isoindolin-1-one] | < 5 | – | – | B (B indicates 10-15 fold) | A (A indicates >15 fold) | A (A indicates >0.66 fold) | A (A indicates >0.66 fold) | B (B indicates 20-35 fold) | A (A indicates >35 fold) | B (B indicates 1.5-2.5 fold) | A (A indicates >1.1 fold) | B (B indicates 1.5-2.5 fold) | A (A indicates >1.1 fold) | B (B indicates 11-15 fold) | A (A indicates >15 fold) | A (A indicates >0.66 fold) | A (A indicates >0.66 fold) | B (B indicates 1.24-1.39 fold) | B (B indicates 1.24-1.39 fold) | CD25 staining CD3 3 μM [2, 9]: B (B indicates 1.05-1.14 fold); CD25 staining CD3 3 μM [5, 9]: B (B indicates 1.05-1.14 fold)
5 | C[C@H]1CCCN(Cc2cc3c(c(C(F)(F)F)c2)CN(c2cccc([C@]4(c5nncn5C)C[C@@H](C)C4)c2)C3=O)C1 [Compound 23, 2-(3-((1s,3R)-3-methyl-1-(4-methyl-4H-1,2,4-triazol-3-yl)cyclobutyl)phenyl)-6-(((S)-3-methylpiperidin-1-yl)methyl)-4-(trifluoromethyl)isoindolin-1-one] | < 5 | < 1 | < 1 | A (A indicates >15 fold) | A (A indicates >15 fold) | – | – | C (C indicates <20 fold) | C (C indicates <20 fold) | – | – | – | – | A (A indicates >15 fold) | A (A indicates >15 fold) | – | – | B (B indicates 1.24-1.39 fold) | B (B indicates 1.24-1.39 fold) | survival (TC-1 cells): prolonged survival; tumor progression (tumor volume) (TC-1 cells): significant slowdown of tumor progression; Tumor growth inhibition (TGI) [7]: 68%

From patent US12234230B2, “Substituted benzyl-triazole compounds for Cbl-b inhibition, and further uses thereof” (Nurix Therapeutics, Inc., priority 2019, dated 2025)
